Results from US20070093469A1, “Substituted azetidine compounds as cyclooxygenase-1-cyclooxygenase-2 inhibitors, and their preparation and use as medicaments” (LABORATORIOS DEL DR. ESTEVE S.A, priority 2004, published 2007).

Tested on: rats
Experiment: Test for activity against edema in rats (carrageenin paw)
Type: in vivo
Conditions: Rattus norvegicus, oral route
Procedure: IV. Test for Activity Against Edema in Rats
The test for activity against edema is carried out as described in the publication of Winter et al., Proc. Soc. Exp. Biol. Med. 111, 544-547, (1962). The respective part of the description is hereby incorporated by reference and forms part of the present disclosure.
At the beginning of each experimental session the rats are deprived of food, and kept in cages within groups of 5 animals, the cages being fitted with a grating on the floor to prevent coprophagy. After a period of 24 hours without food, the animals are marked in a suitable way, weighed and hydrated via oral administration of 30 ml/kg body weight of tap water. Half an hour after the hydratisation, the compounds to be tested are administered via oral route, in an amount of 10 ml/kg body weight as a suspension in gum arabic at 5% (weight/volume). One hour after administration of the compounds the animals receive 0.1 ml of the inflammation causing agent (carrageenin 1% weight/volume, in sterile solution), injected via subplantar route into the right hind paw of the rats. Immediately after the carrageenin injection the volume of the injected paw is determined using a plethysmometer. The readings are expressed in ml. Readings of the volume of the paw are taken every hour after administration of the carrageenin for 7 hours.

| SMILES | ED50 [mg/kg] |
| --- | --- |
| CC1C(O)CN1C(=O)c1cc(C(C)(C)C)c(O)c(C(C)(C)C)c1 (centres unmarked) [Example 4, (3,5-di-tert-butyl-4-hydroxy-phenyl)-(3-hydroxy-2-methyl-azetidin-1-yl)-methanone] | 31 |
| CC(C)(C)c1cc(C(=O)N2CC(O)C2)cc(C(C)(C)C)c1 [Example 2, (3,5-di-tert-butyl-phenyly)-(3-hydroxy-azetidin-1-yl)-methanone] | 28 |
